What all share (type): functional, cell-based
One experiment concerns HepG2. The experiment can be described thus: Antiproliferative activity against human HepG2 cells assessed as reduction in cell viability measured after 72 hrs by MTT assay. Particulars: HepG2, 72 h. (In general: Tetrazolium dyes change colour on reduction, which living cells bring about.)
The next experiment concerns J82. The experiment can be described thus: Antiproliferative activity against human J82 cells assessed as reduction in cell viability measured after 72 hrs by MTT assay. Particulars: J82, 72 h.
The subject of a further experiment is SK-BR-3. The experiment can be described thus: Antiproliferative activity against human SK-BR-3 cells assessed as reduction in cell viability measured after 72 hrs by MTT assay. The settings on record: SK-BR-3, 72 h.
For the next experiment, the system named is HCT-116. The experiment can be described thus: Antiproliferative activity against human HCT-116 cells assessed as reduction in cell viability measured after 72 hrs by MTT assay. The settings on record: HCT-116, 72 h.

The structures appear in SMILES notation.

Drawing on ChEMBL document CHEMBL5143561, “Neopestolides A-D, Diphenyl Ether Derivatives from the Plant Endophytic Fungus Neopestalotiopsis sp” (J Nat Prod, 2022), this text covers IC50 for seven compounds.

For the compound `COc1c(/C=C/[C@@](C)(O)CO)ccc2c1C(=O)OCc1cc(C)cc(O)c1O2`, the IC50 in the experiment on HepG2 was 70.1 µM; in the experiment on J82 it was more than 100 µM; in the experiment on SK-BR-3, more than 100 µM; in the experiment with HCT-116, 79.3 µM.

As to `COc1c([C@@H]2OC[C@@](C)(O)[C@H]2O)ccc2c1C(=O)OCc1cc(C)cc(O)c1O2`, the IC50 was 99.7 µM in the experiment on HepG2, more than 100 µM in the experiment with J82, 88.5 µM in the experiment on SK-BR-3 and 74.3 µM in the experiment on HCT-116.

With `C=C(C)[C@H](C)[C@H](O)c1ccc2c(c1OC)C(=O)OCc1cc(C)cc(O)c1O2`, the half-inhibitory concentration (IC50) in the experiment on HepG2 stood at 12.4 µM; in the experiment with J82, 62.4 µM; in the experiment on SK-BR-3 it was 43.8 µM; in the experiment on HCT-116 it was 22.4 µM.

With `C=C1CO[C@@H](c2ccc3c(c2OC)C(=O)OCc2cc(C)cc(O)c2O3)[C@@H]1O`, the IC50 in the experiment on HepG2 was 21.6 µM; with J82, more than 100 µM; in the experiment on SK-BR-3, more than 100 µM; in the experiment on HCT-116, 20.7 µM.

Regarding `COc1c([C@H]2OC[C@@](C)(O)[C@H]2O)ccc2c1C(=O)OCc1cc(C)cc(O)c1O2`, the 50% inhibitory concentration (IC50) with HepG2 was 80.1 µM; in the experiment on J82, more than 100 µM; in the experiment on SK-BR-3, more than 100 µM; in the experiment with HCT-116, 47.1 µM.

For `C=C1CO[C@H](c2ccc3c(c2OC)C(=O)OCc2cc(C)cc(O)c2O3)[C@H]1O`, the IC50 was 30.1 µM in the experiment with HepG2, more than 100 µM in the experiment on J82, 86.5 µM with SK-BR-3 and 57.1 µM in the experiment on HCT-116.

In the case of `C=C1COC(c2ccc3c(c2OC)C(=O)OCc2cc(C)cc(O)c2O3)C1O` (racemic), the concentration for half-maximal inhibition (IC50) was 16.8 µM with HepG2, more than 100 µM in the experiment with J82, 29.1 µM in the experiment with SK-BR-3 and 45.6 µM in the experiment with HCT-116.

In general, IC50 refers to the concentration that inhibits the measured activity by half.
